What was measured:
[1] = Inhibition of c-Met-mediated scattering in HGF-stimulated human DU145 cells
[2] = Inhibition of c-Met-mediated migration in HGF-stimulated human A549 cells by wound healing assay

## CCn1cnc(-c2cc3nccc(Oc4ccc(NC(=O)N5CCN(c6ccc(F)cc6)C5=O)cc4F)c3s2)c1 [N-(4-(2-(1-ethyl-1H-imidazol-4-yl)thieno[3,2-b]pyridin-7-yloxy)-3-fluorophenyl)-3-(4-fluorophenyl)-2-oxoimidazolidine-1-carboxamide]
[1]
  IC50: 80 nM
[2]
  IC50: 240 nM

— BindingDB's records for doi:10.1016/j.bmcl.2009.01.068 (Methylgene, 2009)
